The values below come from US20200000822A1, “METHODS OF TREATMENT FOR CANCER, STEROL HOMEOSTASIS, AND NEUROLOGICAL DISEASES” (BOARD OF REGENTS, THE UNIVERSITY OF TEXAS SYSTEM, priority 2017, published 2020).

The target in one data set is T1, human TMEM97 (Homo sapiens, UniProt Q5BJF2).
T1 construct: made in house; host or cells: Sf9 insect cells (baculovirus, pVL1392, BestBac)
Briefly: ^3H DTG competition binding in Sf9 insect membranes overexpressing TMEM97. The conditions noted are these: competition with 30 nM ^3H DTG. On the procedure: For insect cell expression, human TMEM97 was cloned into the vector pVL1392, and baculovirus was prepared using the BestBac system (Expression Systems) in accordance with manufacturer's instructions. For large scale production, Sf9 insect cells were infected at a density of 4×10^6 cells/mL and then shaken at 27° C. for 60 hours prior to harvest.
(§1) Membranes were prepared from PC-12, MCF-7, Sf9, or Expi293 cells. In brief, adherent cells were washed with ice cold PBS or HBS and harvested with a cell scraper, while suspension cells were simply pelleted. Cell pellets were suspended in 20 mM HEPES pH 7.5, 2 mM magnesium chloride, and 1:100,000 (v:v) benzonase nuclease (Sigma Aldrich) and supplemented with cOmplete Mini, EDTA-free Protease Inhibitor Cocktail Tablets (Roche). Following dounce homogenization, the cells were centrifuged at 50,000×g for 20 minutes. The supernatant was discarded and the membranes were washed one more time with cold 50 mM Tris pH 8.0 containing cOmplete Mini, EDTA-free Protease Inhibitor Cocktail Tablets (Roche, 1 tablet per 50 mL buffer). The membranes were centrifuged once more at 50,000× for 20 minutes, and then resuspended in a variable volume of cold 50 mM Tris pH 8.0 with the same protease inhibitor cocktail. Protein content was assessed by DC protein assay (Bio-Rad) according to manufacturer's instructions. Membranes were aliquoted, flash frozen, and stored at −80° C. until use in the radioligand binding experiments described below.
1.8 μM (+)SKF-10,047 was included to block 1l receptor sites in all MCF-7 membranes binding assays and in Sf9 membranes when testing TMEM97 ligands. Reactions were incubated for 90 minutes at 37° C., and were then terminated by filtration through a glass fiber filter using a Brandel cell harvester. Glass fiber filters were soaked in 0.3% polyethylenimine for at least 30 minutes at room temperature prior to harvesting. All reactions were performed in triplicate using a 96-well block. After the membranes were transferred to the filters and washed, the filters were soaked in 5 mL Cytoscint scintillation fluid overnight and radioactivity was measured using a Beckman Coulter LS 6500 scintillation counter. Data were analyzed using software from Graphpad Prism. Ki values were computed directly without the use of the Cheng-Prusoff correction using the Graphpad Prism software.

In data set [1] the target is sigma-2 receptor (Homo sapiens, UniProt Q5BJF2). The experiment in a line: ^3H DTG competition binding in MCF-7 cell membranes. Conditions: competition with 30 nM ^3H DTG. As for the experimental part: as §1, with “The membranes were centrifuged once more at 50,000× for 20 minutes, and then resuspended in a variable volume of cold 50 mM Tris pH 8.0 with the same protease inhibitor cocktail.” left out, “Membranes were aliquoted, flash frozen, and stored at −80° C. until use in the radioligand binding experiments described below.” left out
Sequence of sigma-2 receptor (Homo sapiens, UniProt Q5BJF2) (Q5BJF2 whole entry, species assumed): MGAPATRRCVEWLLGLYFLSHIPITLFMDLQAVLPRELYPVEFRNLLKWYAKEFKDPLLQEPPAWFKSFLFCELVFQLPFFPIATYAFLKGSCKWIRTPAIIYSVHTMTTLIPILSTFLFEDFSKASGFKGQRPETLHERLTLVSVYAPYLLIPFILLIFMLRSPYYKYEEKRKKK
1.8 μM (+)SKF-10,047 was included to block 1l receptor sites in all MCF-7 membranes binding assays and in Sf9 membranes when testing TMEM97 ligands. […] After the membranes were transferred to the filters and washed, the filters were soaked in 5 mL Cytoscint scintillation fluid overnight and radioactivity was measured using a Beckman Coulter LS 6500 scintillation counter. Data were analyzed using software from Graphpad Prism. […]

For the next data set, the target named is T2, PGRMC1 (Homo sapiens, UniProt O00264).
T2 construct: mCardinal (behind the 2A skip peptide, reporter of transfection) (C, cleaved yes); expressed in transfected cells
T2 sequence (O00264 whole entry, species assumed): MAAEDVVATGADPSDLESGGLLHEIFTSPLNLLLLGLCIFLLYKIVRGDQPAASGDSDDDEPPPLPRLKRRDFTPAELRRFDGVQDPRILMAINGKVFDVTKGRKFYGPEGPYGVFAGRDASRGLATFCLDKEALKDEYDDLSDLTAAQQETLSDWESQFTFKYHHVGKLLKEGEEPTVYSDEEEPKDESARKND
The experiment in a line: single-point ^3H DTG binding, HEK293 cells overexpressing PGRMC1. Conditions: 10 nM ^3H DTG. On the procedure: Eight selected hits from LC-MS/MS were cloned into a pTARGET vector (Promega), followed by a porcine teschovirus-1 2A skip peptide ([…] (SEQ ID NO: 3)) and by the fluorescent protein mCardinal40 to assess transfection efficiency. Plasmids were transfected into Expi293 cells (Thermo Fisher) according to manufacturer's instructions. After 36 hours, expression of each target protein was confirmed by flow cytometry analysis of mCardinal fluorescence levels. Receptor point mutants were generated by site-directed mutagenesis using KAPA polymerase (KAPA Biosystems), and resulting constructs were expressed in Expi293 cells as described above.
Membranes were prepared from PC-12, MCF-7, Sf9, or Expi293 cells. In brief, adherent cells were washed with ice cold PBS or HBS and harvested with a cell scraper, while suspension cells were simply pelleted. Cell pellets were suspended in 20 mM HEPES pH 7.5, 2 mM magnesium chloride, and 1:100,000 (v:v) benzonase nuclease (Sigma Aldrich) and supplemented with cOmplete Mini, EDTA-free Protease Inhibitor Cocktail Tablets (Roche). […] Protein content was assessed by DC protein assay (Bio-Rad) according to manufacturer's instructions. […]
Membrane radioligand binding assays were performed as described 41 with slight modifications. […] Radioactivity was measured by liquid scintillation counting.

In the next data set the test system is Tmem97 mRNA. Briefly: siRNA knockdown of Tmem97 in PC-12 cells, qPCR of mRNA. Format: cell-based, Rattus norvegicus. The conditions noted are these: 10 nM siRNA. As for the experimental part:
A pair of siRNA oligos were designed against Rattus norvegicus Tmem97 mRNA using the Stealth RNAi™ tool available through ThermoFisher Scientific. The sense strand for the siRNA was 5′-[…]-3′ (SEQ ID NO: 4), and the antisense strand was 5′-[…]-3′ (SEQ ID NO: 5). As a control, we used the AllStars Negative Control siRNA™ from Qiagen. For the transfection, 2.2×10^6 PC-12 cells suspended in 8.0 mL of DMEM with 10% FBS and 10 μg/mL of gentamicin were placed in a 10 cm dish and immediately transfected with a 2.0 mL solution containing 20 μL of Lipofectamine® RNAimax from ThermoFisher Scientific and 10 nM of either the control or Tmem97 siRNA. After 24 hours, the media was changed for fresh media, and the cells were transfected again in the same way. 48 hours after the first transfection, the cells were trypsinized and split 1:2 into two new 10 cm plates. On the 5th day after the first transfection, cells were harvested by trypsinization and centrifugation, and 10% were set aside for RNA extraction while 90% were used for binding analysis. […]
After preparation of the cDNA was complete, real-time quantitative PCR (qPCR) was performed on a QuantStudio 6 qPCR instrument at the Harvard Medical School Center for Molecular Interactions using PowerUp™ SYBR® Green Master Mix from Applied Biosystems Life Technologies. […] Fold differences in Tmem97 expression levels were calculated using the ΔΔCT method 43. […]

Data set [2] deals with T3, sigma-2 receptor (Rattus norvegicus, UniProt Q5U3Y7).
T3 construct: endogenous in cells; host or cells: PC-12 cells
T3 sequence (Q5U3Y7 1-176): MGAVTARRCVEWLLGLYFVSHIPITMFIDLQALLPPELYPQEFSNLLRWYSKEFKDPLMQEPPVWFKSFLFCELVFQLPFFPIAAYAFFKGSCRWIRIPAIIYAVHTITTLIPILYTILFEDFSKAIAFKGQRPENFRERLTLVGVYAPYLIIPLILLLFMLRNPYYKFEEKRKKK
Briefly: siRNA knockdown of Tmem97 in PC-12 cells, sigma-2 expression by saturating ^3H DTG binding. Format: cell-based. The conditions noted are these: compared with mRNA reduction. As for the experimental part:
as §1, with “Cell pellets were suspended in 20 mM HEPES pH 7.5, 2 mM magnesium chloride, and 1:100,000 (v:v) benzonase nuclease (Sigma Aldrich) and supplemented with cOmplete Mini, EDTA-free Protease Inhibitor Cocktail Tablets (Roche).” left out, “-80°” for “−80°”, “below. Membrane radioligand binding assays were performed as described 41 with slight modifications. […] Samples were incubated at room temperature with shaking for 1.5 hours, at which time the reaction was terminated by the addition of ice-cold water. Samples were then applied to glass fiber filters (Merck Millipore) that had been pre-treated with 0.3% (v/v) polyethylenimine. […] Radioactivity was measured by liquid scintillation counting. […]” for “below.”

Entries after “also recorded” stand apart in the source; their conditions may differ.

T1 sequence (Q5BJF2 whole entry): as the sequence (Q5BJF2 whole entry, species assumed) above

Consider `CC(C)=CCN1CCC2(C)c3cc(O)ccc3CC1C2C` (single isomer, unassigned; (+)) [(+)-pentazocine], for which the “affinity of the ligand for TMEM97 compared with previously reported affinities” value on human TMEM97 is “essentially identical to previously report sigma-2 receptor binding affinities; also recorded: essentially identical to previously reported affinities”. For `COc1cc2c(cc1OC)CN(CCc1ccc(NC(=O)c3cccc4c(=O)c5cccc(OC)c5[nH]c34)cc1)CC2` [Elacridar], on human TMEM97, the “affinity of the ligand for TMEM97 compared with previously reported affinities” value is “essentially identical to previously reported affinities”. For the same molecule, the “binding affinity in MCF-7 cell membranes compared with Sf9 membranes overexpressing TMEM97” value at sigma-2 receptor [1] is on record as “identical in both”. For `COc1cccc2c1CCCC2CCCN1CCN(C2CCCCC2)CC1` (centres unmarked) [PB-28], on human TMEM97, the “affinity of the ligand for TMEM97 compared with previously reported affinities” value was “essentially identical to previously report sigma-2 receptor binding affinities; also recorded: essentially identical to previously reported affinities”. `C=CCN(C)CCCCCCOc1ccc(C(=O)c2ccc(Br)cc2)c(F)c1` [Ro 48-8071, (4-Bromophenyl)-[2-fluoro-4-[6-[methyl(prop-2-enyl)amino]hexoxy]phenyl]methanone]: on human TMEM97, the “affinity of the ligand for TMEM97 compared with previously reported affinities” value was “essentially identical to previously reported affinities”. The “binding affinity in MCF-7 cell membranes compared with Sf9 membranes overexpressing TMEM97” value at sigma-2 receptor [1] was “identical in both”. In the case of `Cc1ccccc1NC(=N)Nc1ccccc1C` [^3H DTG, ^3H 1,3-di-o-tolylguanidine], the “^3H DTG binding” value at PGRMC1 is reported as “did not lead to increased”.

For `O=C(CCCN1CCC(O)(c2ccc(Cl)cc2)CC1)c1ccc(F)cc1` [haloperidol], on human TMEM97, the “affinity of the ligand for TMEM97 compared with previously reported affinities” value is “essentially identical to previously report sigma-2 receptor binding affinities; also recorded: essentially identical to previously reported affinities”. Same read-out and setting: for (+)-SKF-10,047 the value was “essentially identical to previously report sigma-2 receptor binding affinities; also recorded: essentially identical to previously reported affinities”. In the case of “siRNA: siRNA against Rattus norvegicus Tmem97 mRNA; sense strand 5′-CAACCUGUUGCGGUGGUACUCUAAG-3′ (SEQ ID NO: 4) (antisense CUUAGAGUACCACCGCAACAGGUUG; chemistry not given here)”, in the data set on Tmem97 mRNA, the “reduction of Tmem97 mRNA expression” value is about 60%. Further, the “reduction in sigma-2 expression levels by saturating ^3H DTG binding” value with sigma-2 receptor [2] is recorded as “near identical reduction”.
